This is an account of results in US7928089B2, “Mucoactive agents for treating a pulmonary disease” (Vectura Limited, priority 2003, dated 2011).

The nature of this experiment: Stage 1 heparin dose-response: CF sputum viscoelasticity by magnetic microrheometry. The note with it: 30 minutes at 37°, 10 rad/s, 10 CF sputum samples; FIG. 3; NAL 309 mcg/mL. Details: species or system human. On the procedure: An experimental programme was conducted to test the mucolytic activity of selected mucoactive agents. The primary objective of this initial protocol is to determine the mucolytic activity (capacity to reduce the viscosity and elasticity and thereby affect clearability) of heparin in cystic fibrosis sputum at concentrations of potential clinical relevance. This constitutes the Stage 1 experiment, below. The secondary objective is to compare heparin with other heparin fractions in a screening test for activity, incorporated in the Stage 2 experiment. […]
The magnetic microrheometer was described by King (King M (1988) “Magnetic microtheometer” Methods in Bronchial Mucology, pp. 73-83.). This instrument is used to measure the bulk viscosity and elasticity of microliter quantities of mucus. […]
When interpreting the results of the studies discussed herein, the primary variable of interest is the decrease in mucus viscoelasticity, expressed as delta log G* (corrected for vehicle treatment). […]
From each of 10 CF sputum samples, up to 6 aliquots of approximately 10-15 mg each were incubated for 30 minutes at 37° with either 0.9% NaCl or with one of the concentrations of heparin, or with N-acetylcysteine L-lysinate (NAL) (309 mcg/mL). Prior to incubation and following it, sputum viscoelasticity at 10 rad/s was determined by magnetic microrheometry. […]

On to N-acetylcysteine L-lysinate [NAL], for which the “mucolytic effect (fractional decrease in G*)” value is “effective at a lower concentration compared to heparin”.
